Assay results published in publication PMC6274095 (Molecules, 2016).

What was measured:
[1] = tested on: neonatal rat cardiomyocytes (CMs); experiment: Cardiotoxicity evaluation, xCELLigence RTCA cardio impedance; format: cell-based; conditions: 10 μM
Description: To assess the potential adverse risk in cardiomyocytes, we administrated neonatal rat cardiomyocytes (CMs) with cardamonin, tested at 10 μM (22-fold of the IC50 value). Amiodarone (10 μM), an antiarrhythmic drug that delays cardiac repolarization through inhibiting hERG potassium channels [31], was performed as a positive cardio toxic control [32]. […] Amplitude represented the height of the print. […] Cell index represented cell number and viability. […] Cardiotoxicity test of cardamonin was performed with neonatal rat cardiomyocytes that obtained from 24 h Sprague-Dawley rats [47]. Compound treatment and cardiomyocytes impedance profiles were monitored as previously reported by Yu et al. [48]. Briefly, CMs cells were seeded into cardio E-Plate 96 that pre-coated with matrigel. Thereafter, cell culture medium was refreshed every day until CMs presented stable beating patterns. For compound treatment, 10× chemical dose solutions were prepared and added to the cells. The cell impedance was captured using xCELLigence RTCA cardio instrument.

hTRPA1 cation channel [2] = molecular target: T1, hTRPA1 cation channel (Homo sapiens, UniProt O75762); conditions: HEK293/TRPA1 activation; cited from earlier work
T1 construct: host or cells: HEK293

TRPV1 channel = molecular target: T2, TRPV1 channel (Homo sapiens, UniProt Q8NER1); experiment: Calcium mobilization assay in HEK293/TRPV1 cells (2APB-stimulated); format: cell-based
T2 construct: host or cells: HEK293
Description: (§1) Recombinant HEK293/TRPA1, HEK293/TRPV1, and HEK293/TRPV4 cell lines were generated by HD Bioscience Co. Ltd (Shanghai, China) following standard procedures as reported previously. HEK293/TRPA1 and HEK293/TRPV4 cells were cultured in complete DMEM medium with 100 μg/mL hygromycin B, 50 U/mL penicillin, and 100 μg/mL streptomycin. HEK293/TRPV1 cells were cultured with 350 μg/mL zeocin and 5 μg/mL blasticidin in complete DMEM culture medium.
(§2) Calcium influx upon TRPA1 activation by agonist stimulation was measured using calcium mobilization assay as reported previously. Briefly, cells were plated into 96-well microplates (matrigel coated) at a density of 3.5 × 10^4 cells per well. The plates were incubated at 37 °C with 5% CO2 overnight to allow the cells to recover. On the following day, replace cell culture medium with loading buffer containing Fluo-4 AM (MD, CA, USA), kept the plate at 37 °C for 30 min. Test compound was added to cells 10 min prior to the onset of TRAP1 agonist cinnamaldehyde, TRPV1 agonist 2APB, or TRPV4 agonist GSK1016790A. The calcium signal was captured with Flexstation II reader (MD, CA, USA) at 37 °C for TRPA1 and TRPV1 activation. The reader chamber was set at 24 °C for TRPV4 activation.

TRPV4 ion channel = molecular target: T3, TRPV4 ion channel (Homo sapiens, UniProt Q9HBA0); experiment: Calcium mobilization assay in HEK293/TRPV4 cells (GSK1016790A-stimulated); format: cell-based
T3 construct: host or cells: HEK293
Description: TRPV4 is another critical TRP ion channel that plays a role in thermal and mechanical hyperalgesia. TRPV4 shares similarity with TRPA1 [24, 25]. […] Firstly, the activating effect of the TRPV4 agonist GSK1016790A was tested. […] Thereafter, cardamonin was incubated with HEK293/TRPV4 cells at 90 μM, 30 μM, and 10 μM prior to 83 nM GSK1016790A stimulation. HEK293/TRPV4 cells treated in the absence of the test compound was the negative control and 330 μM ruthenium red was performed as the positive control.
as §1, §2

HEK293 cells = experiment: HEK293 cell viability, Cell Titer-Glo assay; format: cell-based; conditions: 24 h
Description: In order to rule out the possibilities of false positives, we tested whether cardamonin induced cytotoxicity in HEK293 cells. The cells were seeded into 96-well plate and incubated in the presence or absence of cardamonin. HEK293 cells were incubated with cardamonin for 24 h. […] HEK293 cell viability was determined based on quantification of ATP using Cell Titer-Glo® luminescent Assay kit (Promega, Madison, WI, USA), which signals the presence of metabolically-active cells. Briefly, HEK293 cells were seeded into 96-well plates at a cell density of 3.5 × 10^4 cells per well, the plates were kept at 37 °C with 5% CO2 overnight. On the following day, cardamonin was added to the cells from a top concentration of 90 μΜ. The cells treated in the absence of the test compound were the negative control. After incubated for 24 h, Cell Titer-Glo reagent was added to the cells and Luminescence was acquired on EnVision™ 2100 Multilabel Reader (PerkinElmer, Santa Clara, CA, USA).

hTRPA1 cation channel [3] = molecular target: T1, hTRPA1 cation channel; experiment: Calcium mobilization assay in HEK293/TRPA1 cells (cinnamaldehyde-stimulated); format: cell-based
Description: To discover a novel TRPA1 antagonist, a small library containing 156 natural chemicals were evaluated for their inhibitory effects on the TRPA1 ion channel at 10 μM (Figure 1A). The compound list was released previously. The cells were pre-incubated with cinnamaldehyde (CA) by its EC80 (90 μΜ) for 10 min and then treated with tested compounds. […] The time-course profile of the calcium signal was recorded (Figure 1B) and the peak value was used for determination of the maximum calcium mobilization.
as §1, §2

T1 sequence (O75762 whole entry): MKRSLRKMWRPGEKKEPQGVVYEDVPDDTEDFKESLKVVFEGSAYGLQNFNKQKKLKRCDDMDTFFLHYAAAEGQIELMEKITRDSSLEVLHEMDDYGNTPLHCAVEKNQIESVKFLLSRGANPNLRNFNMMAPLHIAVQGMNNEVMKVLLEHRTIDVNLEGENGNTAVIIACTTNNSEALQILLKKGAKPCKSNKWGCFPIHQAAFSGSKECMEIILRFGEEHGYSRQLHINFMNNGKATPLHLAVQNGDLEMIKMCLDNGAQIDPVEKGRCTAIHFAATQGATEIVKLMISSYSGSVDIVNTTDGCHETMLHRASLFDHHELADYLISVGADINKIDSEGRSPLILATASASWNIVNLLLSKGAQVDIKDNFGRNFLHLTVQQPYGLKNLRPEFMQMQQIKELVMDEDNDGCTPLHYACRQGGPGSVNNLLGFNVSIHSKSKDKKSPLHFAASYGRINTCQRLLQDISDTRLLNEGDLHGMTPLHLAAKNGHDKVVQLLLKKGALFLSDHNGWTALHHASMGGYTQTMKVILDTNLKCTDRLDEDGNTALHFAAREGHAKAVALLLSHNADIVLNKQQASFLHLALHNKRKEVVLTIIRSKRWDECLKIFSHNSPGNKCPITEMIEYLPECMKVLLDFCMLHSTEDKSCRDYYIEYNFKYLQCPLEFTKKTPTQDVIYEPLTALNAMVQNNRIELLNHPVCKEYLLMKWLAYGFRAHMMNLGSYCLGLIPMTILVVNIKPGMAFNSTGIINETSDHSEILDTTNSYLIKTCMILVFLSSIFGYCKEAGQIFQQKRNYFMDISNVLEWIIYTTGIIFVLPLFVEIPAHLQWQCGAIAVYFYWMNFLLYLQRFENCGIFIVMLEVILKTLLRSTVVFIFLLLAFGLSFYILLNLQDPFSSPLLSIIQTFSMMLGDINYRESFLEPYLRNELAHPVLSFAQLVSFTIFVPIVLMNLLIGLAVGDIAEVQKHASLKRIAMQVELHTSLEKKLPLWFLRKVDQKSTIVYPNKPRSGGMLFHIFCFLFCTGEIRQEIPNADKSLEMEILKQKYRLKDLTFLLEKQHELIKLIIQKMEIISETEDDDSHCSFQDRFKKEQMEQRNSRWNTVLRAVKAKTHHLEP
T3 sequence (Q9HBA0 whole entry): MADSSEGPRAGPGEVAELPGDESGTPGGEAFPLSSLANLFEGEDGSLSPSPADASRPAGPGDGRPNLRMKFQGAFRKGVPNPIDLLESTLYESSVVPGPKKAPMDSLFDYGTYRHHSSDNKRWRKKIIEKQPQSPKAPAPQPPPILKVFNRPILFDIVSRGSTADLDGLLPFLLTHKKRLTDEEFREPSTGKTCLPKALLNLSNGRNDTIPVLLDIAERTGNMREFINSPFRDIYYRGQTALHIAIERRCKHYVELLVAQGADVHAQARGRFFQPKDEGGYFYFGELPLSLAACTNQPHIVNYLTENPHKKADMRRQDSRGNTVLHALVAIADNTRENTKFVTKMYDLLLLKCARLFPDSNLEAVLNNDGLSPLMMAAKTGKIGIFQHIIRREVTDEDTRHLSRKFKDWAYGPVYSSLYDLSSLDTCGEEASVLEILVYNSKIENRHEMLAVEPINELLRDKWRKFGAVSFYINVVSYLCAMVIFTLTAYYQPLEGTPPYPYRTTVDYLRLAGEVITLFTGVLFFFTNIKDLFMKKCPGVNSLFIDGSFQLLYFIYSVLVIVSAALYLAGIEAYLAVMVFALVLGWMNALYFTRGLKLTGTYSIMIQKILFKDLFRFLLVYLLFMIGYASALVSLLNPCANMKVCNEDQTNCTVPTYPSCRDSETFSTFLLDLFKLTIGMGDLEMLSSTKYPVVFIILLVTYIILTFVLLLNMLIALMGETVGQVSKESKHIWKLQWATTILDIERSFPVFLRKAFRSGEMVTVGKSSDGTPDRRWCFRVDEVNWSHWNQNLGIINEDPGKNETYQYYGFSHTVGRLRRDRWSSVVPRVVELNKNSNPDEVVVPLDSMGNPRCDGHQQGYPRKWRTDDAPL
T2 sequence (Q8NER1 whole entry): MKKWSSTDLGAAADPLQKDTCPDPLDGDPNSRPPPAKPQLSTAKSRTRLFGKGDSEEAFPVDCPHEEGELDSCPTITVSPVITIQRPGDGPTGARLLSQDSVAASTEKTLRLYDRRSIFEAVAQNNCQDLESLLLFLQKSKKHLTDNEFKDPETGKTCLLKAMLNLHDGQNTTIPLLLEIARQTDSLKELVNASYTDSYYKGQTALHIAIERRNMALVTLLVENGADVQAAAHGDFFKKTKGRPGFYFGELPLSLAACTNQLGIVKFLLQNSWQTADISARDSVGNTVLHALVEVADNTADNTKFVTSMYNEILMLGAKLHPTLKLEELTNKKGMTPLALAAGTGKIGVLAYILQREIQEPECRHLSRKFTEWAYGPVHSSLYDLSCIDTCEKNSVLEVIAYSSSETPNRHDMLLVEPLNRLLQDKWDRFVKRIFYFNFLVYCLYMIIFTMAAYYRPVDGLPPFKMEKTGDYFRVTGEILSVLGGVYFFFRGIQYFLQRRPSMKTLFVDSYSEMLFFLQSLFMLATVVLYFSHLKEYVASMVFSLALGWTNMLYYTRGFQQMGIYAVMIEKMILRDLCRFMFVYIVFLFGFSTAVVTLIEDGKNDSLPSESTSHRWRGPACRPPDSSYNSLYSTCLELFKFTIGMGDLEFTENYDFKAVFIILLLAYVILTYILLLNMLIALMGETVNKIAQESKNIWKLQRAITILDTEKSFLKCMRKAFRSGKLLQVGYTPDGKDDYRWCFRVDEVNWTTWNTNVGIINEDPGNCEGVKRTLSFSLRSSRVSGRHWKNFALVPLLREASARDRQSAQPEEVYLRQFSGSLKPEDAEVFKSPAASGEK

With `CCCCc1oc2ccccc2c1C(=O)c1cc(I)c(OCCN(CC)CC)c(I)c1` [amiodarone, reference compound] the “CMs' beating rate” value [1] was “significantly decreased”.

In the case of `O=C/C=C/c1ccccc1` [cinnamaldehyde], the “EC80 of TRPA1 agonist” value (hTRPA1 cation channel [2]) is listed as 90 μΜ.

Work on `Cl.Cl.Cl.Cl.Cl.Cl.N.N.N.N.N.N.N.N.N.N.N.N.N.N.[O-2].[O-2].[Ru+3].[Ru+3].[Ru+4]` [ruthenium red, reference compound] yielded an IC50 (TRPV1 channel; HEK293/TRPV1, 1 mM 2APB stimulation, read-out: IC50, inhibition of TRPV1 activation) of 207 µM and an IC50 (TRPV4 ion channel; HEK293/TRPV4, added 10 min prior to 83 nM GSK1016790A, 24 °C, read-out: IC50, blocking TRPV4 activation) of 29.8 µM.

For `COc1cc(O)cc(O)c1C(=O)/C=C/c1ccccc1` [cardamonin], the “Inhibition of calcium influx in HEK293/TRPV1 cells” value (TRPV1 channel; 90 μΜ, 30 μΜ and 10 μΜ, pre-treated 10 min, 1 mM 2APB, 37 °C) was “failed to inhibit calcium influx”, the “Cytotoxicity in HEK293 cells” value (HEK293 cells; 90 μΜ (top concentration)) was “slight cell injury” and the “Cytotoxicity in HEK293 cells” value (HEK293 cells; within 30 μΜ, p > 0.05) was “no detectable cytotoxicity”. The “Amplitude profile of CMs” value [1] was “in accordance with vehicle control”, the “CMs' beating pattern (real-time beating impedance)” value [1] was “did not induce dramatic alteration” and the “CMs' beating rate” value [1] was “not”. For the same molecule, the “Cell index (CMs cell number and cell viability)” value [1] was “did not significantly decrease”, the IC50 (hTRPA1 cation channel [3]) was 0.454 µM and the “Inhibition of CA induced HEK293/TRPA1 activation (screen)” value (hTRPA1 cation channel [3]; 10 μM compound, 90 μM cinnamaldehyde) was “significantly inhibited”. For the same molecule, the “Blockage of TRPA1 activity” value (hTRPA1 cation channel [3]; at 90 μM compound) was “Full blockage”, the “Activation of TRPA1 by compound alone” value (hTRPA1 cation channel [3]; without agonist) was “could not activate TRPA1 alone” and the “Inhibition of TRPV4 calcium signal” value (TRPV4 ion channel; 90 μM, 30 μM and 10 μM prior to 83 nM GSK1016790A) was “No detectable inhibiting effect”.

Work on `CC(C)C[C@H](NC(=O)c1cc2ccccc2s1)C(=O)N1CCN(C(=O)[C@H](CO)NS(=O)(=O)c2ccc(Cl)cc2Cl)CC1` [GSK1016790A] yielded an EC50 (TRPV4 ion channel) of 0.0092 µM.
